Data published in US20200022967A1, “Use of 2-carboxamide cycloamino urea derivatives in the treatment of EGFR dependent diseases or diseases that have acquired resistance to agents that target EGFR family members” (Novartis AG, priority 2010, published 2020).

Key:
[1] = system: NCI-N87 tumors; test: NCI-N87 xenograft in CB17 SCID mice, Compound A alone and with lapatinib (Example 6); type: in vivo; settings: for Median TTE: control 26.2
Protocol: The NCI-N87 cells were harvested with 5× trypsin. Eight days after tumor implantation (on Day 1 of the study), mice with an individual tumor volume of 88-196 mm^3 were sorted into 10 groups of ten mice with a group mean tumor volume of 143-149 mm^3.
Where applicable, data is presented as mean±SEM. Each animal was euthanized when its neoplasm reached the endpoint volume (1000 mm^3), or on the last day of the study (Day 59). Time to endpoint (TTE) is calculated by the equation: TTE=(log10(endpoint volume)−b)/m, where TTE is expressed in days, endpoint volume is in mm3, b is the intercept and m is the slope of the line obtained by linear regression of a log-transformed tumor growth data set. Treatment efficacy was determined from Tumor Growth Delay (TGD), which was defined as the increase in the median time to endpoint (TTE) for a treatment group compared to the control group (TGD=T−C), expressed in days, or as a percentage of the median TTE of the control group (% TGD=((T−C)/C)×100), wherein T=median TTE for a treatment group and C=median TTE for the designated control group.
Statistical and graphical analyses was performed with Prism 3.03 (GraphPad) for Windows. For all tests, the level of significance of differences was done using ANOVA, with Bartlett's test; and a post-hoc Dunnett's multiple comparison test compared the mean change for each drub-treated group to the mean for Group 1. Survival was analyzed by the Kaplan-Meier method. The logrank test was employed to analyze the significance of the difference between the overall survival experiences of two groups, based on time to endpoint (TTE) values. The two-tailed statistical analyses were conducted at P=0.05. Prism summarizes test results as not significant (ns) at P>0.05, significant (symbolized by “*”) at 0.01<P<0.05, very significant (symbolized by “**”) at 0.001<P<0.01, and extremely significant (symbolized by “***”) at P<0.001.

[2] = system: NCI-N87 tumors; test: NCI-N87 subcutaneous gastric cancer xenograft, antitumor activity (Example 2); type: in vivo, mice; settings: 50 mg/kg p.o. once daily
Protocol: Experiments were performed in female HsdNpa:Athymic Nude-nu mice approximately 8-12 weeks of age at treatment start. All animals were housed under Optimized Hygienic conditions in Makrolon type III cages (max. 10 animals per cage) with free access to food and water.
NCI-N87 cells (obtained from the American Type Culture Collection), which are of gastric origin and ErbB2 amplified, were grown in DMEM culture medium containing 4.5 g/l glucose supplemented with 10% heat-inactivated FCS, 2 mM L-glutamine, and 1 mM sodium pyruvate. The cells were incubated at 37° C. in a 5% CO2 humidified atmosphere. Cells were harvested with trypsin (0.25% w/v)-EDTA (0.53 mM), re-suspended in culture medium (with additives) and counted with a Casy® system. Cell culture reagents were purchased from BioConcept (Allschwil, Switzerland).
NCI-N87 tumors were established from fragments of approximately 40 mg implanted subcutaneously into the female HsdNpa:Athymic Nude-nu mice with a trocar needle. Treatment started when the tumors reached a size of approximately 110 mm^3, 25 days post implantation.
The Compound was fully dissolved in NMP. Then, PEG300 and liquified Solutol were added (in sequence with vortexing after addition of each reagent). Water was added immediately prior to administration to the animals.
(§1) Tumor volumes were measured with calipers and determined according to the formula: length×diameter^2×π/6. […] Regressions (%) were calculated according to the formula ((mean tumor volume at end of treatment-mean tumor volume at start of treatment)/mean tumor volume at start of treatment)×100. Body weights and tumor volumes were recorded twice a week.
Where applicable, data is presented as mean±SEM. For all tests, the level of significance was set at p<0.05. For tumor volumes, comparisons between treatment groups and vehicle control group were done using one-way ANOVA followed by Dunnett's test. The level of significance of body weight change within a group between the start and the end of the treatment period was determined using a paired t-test. […]

[3] = Body weight in BT474 combination study (Example 3); type: in vivo, mice; settings: Compound A 50 mg/kg p.o. daily, single agent; significant
Protocol: as §1
Where applicable, data is presented as mean±SEM. For all tests, the level of significance was set at p<0.05. For tumor volumes, comparisons between treatment groups and vehicle control group were done using one-way ANOVA followed by Dunnett's test. The level of significance of body weight change within a group between the start and the end of the treatment period was determined using a paired t-test. Comparisons of delta body weights between treatment and vehicle control groups were performed by a one-way ANOVA followed by a post hoc Dunnett's test.

[4] = Group 2 (9 animals): Compound A 12.5 mg/kg p.o. once daily
[5] = Group 2: Compound A 12.5 mg/kg p.o. once daily
[6] = Group 3 (9 animals): Compound A 25 mg/kg p.o. once daily
[7] = Group 3: Compound A 25 mg/kg p.o. once daily

SMILES: Cc1nc(NC(=O)N2CCC[C@H]2C(N)=O)sc1-c1ccnc(C(C)(C)C(F)(F)F)c1 [Compound A, (S)-Pyrrolidine-1,2-dicarboxylic acid 2-amide 1-({4-methyl-5-[2-(2,2,2-trifluoro-1,1-dimethyl-ethyl)-pyridin-4-yl]-thiazol-2-yl}-amide)]
- Regressions CR [1, 4]: CR: 0
- Regressions PR [1, 4]: PR: 0,
- Median TTE ([1]; Group 2 (9 animals): Compound A 12.5 mg/kg p.o. once daily, vs G1 ns): 30.4 days
- % TGD [1, 5]: 16%
- T-C [1, 5]: 4.2 days
- Regressions CR [1, 6]: CR: 0
- Regressions PR [1, 6]: PR: 0,
- Median TTE ([1]; Group 3 (9 animals): Compound A 25 mg/kg p.o. once daily, vs G1 *): 43.5 days
- % TGD [1, 7]: 16%
- T-C [1, 7]: 17.3 days
- regression [2]: 11%
- antitumor effect as compared to vehicle ([2]; p<0.05 ANOVA): statistically significant antitumor effect
- mean change of tumor volume ([2]; vehicle 694.0±93.5): −11.8±17.2 mm^3
- body weight loss [3]: about 12%
